Test: gradient 5% acetonitrile 3 min, to 50% in 2 min, to 85% in 15 min, held 3 min, 100 µL/min
Conditions: column: Zorbax Extend-C18 2.1 x 50 mm; eluents: water / acetonitrile, 0.1% formic acid
In short: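 A Zorbax Extend-C18 column (2.1 × 50 mm, 1.8 μm) run at 100 μL/min with water and acetonitrile, both containing 0.1% formic acid, separated mixtures of ~100 pure standards. The HPLC was coupled to a quadrupole time-of-flight mass spectrometer operated in positive and negative ionization mode, with dead and dwell volumes of 40 μL and 900 μL. Each retention time was taken from a computationally picked adduct peak that was then manually inspected.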

Compound	RP-LC retention time
Cc1ccc(C)c(NC(=O)Cn2nc3c(N4CCC(C)CC4)nccn3c2=O)c1	864 s
Cc1ccc(S(=O)(=O)N2C[C@H](F)C[C@@H]2C(=O)N2CCOCC2)cc1Cl	750 s
CCCS(=O)(=O)N1CC(n2cc(C(=O)N3CCCC3)nn2)C1	654 s
O=C(c1ccc2ccnc(N3CCN(c4ccc(F)cc4)CC3)c2c1)N1CCC2(CC1)OCCO2	724 s
Cc1oc2c(c1C(=O)NCCc1ccccc1Cl)C1=NCCN1C=N2	651 s
O=C(NC1CC1)c1ccc(OCC2CCN(C(=O)c3ccc(Br)o3)CC2)cc1	830 s
Cc1ccc(F)c(NC(=O)c2cnc3c(c2)c(=O)n(C)c(=O)n3-c2ccccc2)c1	904 s
CC(C)c1ccc(OCC(=O)NCCS(=O)(=O)N2CCN(c3ncccn3)CC2)cc1	856 s
C#CCSc1nc2ccccc2c2nc(-c3cccnc3)nn12	998 s
CCc1cc(C(=O)NCc2ccccc2Cl)nc2ccnn12	1000 s
COc1ncc(C(=O)NCc2ccc(N(C)C)cc2)cn1	564 s
Cc1ccc(F)cc1NS(=O)(=O)c1cn(CC(C)C)c2ncccc12	993 s
CCOc1ccc(NC(=O)C2CCCN(c3nccnc3Sc3ccccc3)C2)cc1 (stereo not drawn)	1100 s
COc1ccc(C2SCCN2S(=O)(=O)c2ccc(C)c([N+](=O)[O-])c2)cc1OC (stereo not drawn)	900 s
O=C(Nc1cccnc1)N1CCC(Cc2cccc(Oc3ccc(C(F)(F)F)cn3)c2)CC1	866 s
COc1ccc(N2CC(c3nc(-c4oc5ccc(OC)cc5c4C)no3)CC2=O)cc1 (stereo not drawn)	1020 s
CC(C)CC1OC(=O)C2=CCCCC21 (stereo not drawn)	1050 s
O=c1ccn(-c2cccc(F)c2)nc1-c1nc(-c2cccc(Cl)c2)no1	992 s
Cc1cc(OCC(=O)N2CCC[C@H]2C(=O)O)c2c3c(c(=O)oc2c1)CCCC3	754 s
O=C(c1ccccc1)N1CCC(Oc2cc(N3CCOCC3)ncn2)C1 (stereo not drawn)	676 s
O=C(Cc1ccccc1Br)NCC(=O)N1CCCc2ccccc21	862 s
CCc1nc2c(NC(=O)c3ccc(F)c(Cl)c3)cccn2n1	924 s
CCN(Cc1ccccc1)C(=O)CN1C(=O)C(O)(c2cccc(F)c2)c2ccccc21 (stereo not drawn)	655 s
CCc1nc2cc3c(cc2n1CC(=O)N1CCCCC1)OCCO3	600 s
Cc1ccc(NC(=O)CSc2nc(N3CCCCC3)nc3ccccc23)cc1C	795 s
COc1ccc(-c2nnc(SCc3ccc(Br)cc3)o2)cc1	1170 s

Compound	RP-LC retention time
CCOC(=O)c1[nH]c(C)c(CCC(=O)N2CCC(C(=O)NCC3CCCO3)CC2)c1C (stereo not drawn)	670 s
Cc1ccc(NC(=O)CN2C(=O)CCCc3cc(S(=O)(=O)N4CCCC4)ccc32)cc1Cl	943 s
Cn1ncc2c3ccccc3n(CCCC(=O)NCCc3c[nH]c4ccccc34)c2c1=O	815 s
COc1ccc(NC(=O)C2CCN(S(=O)(=O)c3ccc4[nH]c(=O)ccc4c3)CC2)cc1Cl	752 s
O=C(CCn1cnc2cc(-c3noc(COc4ccccc4)n3)ccc21)N1CCCC1	730 s
Cc1nn(C)c2nc(OC(C)C(=O)NCc3ccc(Cl)cc3)cc(C(F)(F)F)c12 (stereo not drawn)	1020 s
Cc1ccc(N2CCC(NC(=O)c3ccc(N(C)C)cc3)C2=O)cc1 (stereo not drawn)	810 s
CC(C)C(=O)N1[C@H]2CC[C@@H]1c1cnc(-c3ccc(F)cc3)nc1C2	871 s
Cn1nc(-c2nnc(-c3ccc(F)cc3)o2)c2c1CCN(S(=O)(=O)c1ccccc1F)C2	937 s
COc1cc(NC(=O)C2CCN(S(=O)(=O)c3ccc4c(c3)NC(=O)C(C)O4)CC2)cc(OC)c1 (stereo not drawn)	811 s
Fc1ccc(-c2nc(-c3ccc4nncn4c3)no2)c(Cl)c1	849 s
COc1cc(OC)cc(C(=O)N2CCCC2c2nc(-c3ccc(OC)c(OC)c3)no2)c1 (stereo not drawn)	879 s
COc1ccc2nc(C(=O)NCc3ccccc3F)cn2n1	806 s
COc1cccc(-c2noc(-c3nn(-c4cccc(F)c4)ccc3=O)n2)c1OC	807 s
Cc1ccsc1C(=O)Nc1ccccc1Sc1c(C)c(C)nc2nc(-c3ccccc3)nn12	1120 s
Cc1ccc(NC(=O)N2CCC(n3c(-c4ccco4)nc4cccnc43)C2)cc1F (stereo not drawn)	815 s
CC(C)n1cnc2ccc(-c3noc(-c4cccc(C#N)c4)n3)cc21	761 s
CCn1ccc(C(=O)N2CCC(c3nc(-c4ccncc4)no3)C2)n1 (stereo not drawn)	640 s
Cc1ccc(N2CCN(S(=O)(=O)c3cc4n(c3)CCCNC4=O)CC2)cc1	743 s
CN(C(=O)Cn1cnc2c(-c3ccc(F)cc3)csc2c1=O)c1ccccc1	948 s
COc1cccc(N2CCN(c3cc(SCC(=O)NCc4ccccc4)ncn3)CC2)c1	891 s
COC(=O)c1cccc(NC(=O)N2C[C@@H]3C[C@H](NC(=O)c4ccccc4)[C@H]2C3)c1	836 s
O=C(Cc1ccc(Cl)cc1)NC1CCN(c2nnc3ccc(C(F)(F)F)cn23)CC1	799 s
O=C(NCCCn1cccc1)c1ccc(F)c(F)c1	791 s
Cc1cc(N(CCCl)CCCl)ccc1/C=N/NC(=O)Cc1cc(=O)oc2cc(O)ccc12	862 s

Other lines, results leading:

RP-LC retention time	Compound
714 s	CCc1onc(C)c1C1CCCN1C(=O)c1ccc(OC)c(OC)c1 (stereo not drawn)
942 s	COc1cc(C(=O)Nc2nnc(SCc3nnc(-c4ccccc4C)o3)s2)cc(OC)c1OC
604 s	O=C(Cc1ccccc1Cl)Nc1cnc(N2CCCC2)nc1
971 s	Cc1cc(NC(=O)CN2C(=O)C(C(=O)N3CCCC3)Sc3ccccc32)ccc1Br (stereo not drawn)
614 s	COCCNC(=O)CC1CCN(C(=O)c2[nH]c(C)c(C(=O)OC)c2C)CC1
794 s	CC1(C)CCCC2(C)C(OCCO)=CC(=O)C=C12 (stereo not drawn)
690 s	Cc1ccsc1CN1CC(Oc2ccc(-c3noc(C4CCOCC4)n3)cc2)C1
937 s	O=C(c1ccc2ccccc2n1)N1CCC(Oc2ccccc2)C1 (stereo not drawn)
1250 s	O=C(COc1ccc(Cl)cc1Cl)Nc1nc(-c2ccc(F)cc2)cs1
890 s	Cc1noc(-c2cc(=O)n(CC(=O)Nc3ccc(F)c(F)c3)c3ccccc23)n1
583 s	CC1CCCCN1C(=O)Cn1c(CCO)nc2ccccc21 (stereo not drawn)
620 s	COCCn1c(C(CNc2cccc(C)c2)CC(=O)O)nc2ccccc21 (stereo not drawn)
924 s	COc1ccc(C(=O)Nc2nc(-c3ccc4c(c3)NC(=O)C(C)O4)c(C)s2)cc1 (stereo not drawn)
637 s	O=C(NC1CCCCC1)C1CCN(c2cncnc2N2CCCC2)CC1
668 s	COc1ccc(NC(=O)NCC2CCOCC2)cc1F
1050 s	CCc1ccc(Oc2cc(N3CCC(C(=O)NCc4ccc(C)cc4)CC3)ncn2)cc1
994 s	CCOc1ccccc1NC(=O)C1CCN(S(C)(=O)=O)c2ccccc2O1 (stereo not drawn)
615 s	CCn1nc(C)c(CNC(=O)Nc2cc(OC)c(OC)c(OC)c2)c1C
948 s	Cc1ccc2c(c1)cc(S(=O)(=O)c1ccccc1)c(=O)n2CC(=O)NCc1ccccc1Cl

RP-LC retention time	Compound
728 s	CC1=C(c2ccccc2)S(=O)(=O)N=C1N1CCCN(C(=O)c2ccoc2)CC1
627 s	Cn1cc(-c2nc(-c3cccc(Cl)c3)no2)c(=O)c2cc(F)c(N3CCCC3)cc21
979 s	CCOC(=O)c1nc(N2CCC(Cc3ccccc3)CC2)c2ccccc2n1
722 s	Cc1cc2nn(CC(=O)NCC3CCCO3)c(=O)n2c(Nc2ccc(F)cc2)n1 (stereo not drawn)
751 s	Cc1cccc(NC(=O)N2CCC(CC(=O)N3CCCCC3)CC2)c1C
1030 s	CC(NC(=O)c1ccco1)c1nc(-c2ccc(Oc3ccccc3)cc2)no1 (stereo not drawn)
598 s	O=C(N[C@@H]1CN(Cc2ccc(Cl)cc2F)CC[C@@H]1CO)C1CC1
1170 s	Cc1ccc(Cn2c(N3CCCC(C(=O)Nc4ccc(C)c(F)c4)C3)nc3ccsc3c2=O)cc1 (stereo not drawn)
660 s	CCCc1cc(NCCN(C)C)n2ncc(-c3ccccc3)c2n1
1030 s	CC(=O)c1cccc(NC(=O)c2cnn3c4c(cnc23)CCCCCC4)c1
762 s	Cc1noc(-c2nn(C)c3c2CN(C(=O)Cc2ccc(Cl)cc2)CC3)n1
755 s	O=C(NCC1CCOCC1)Nc1cc(F)c(F)c(F)c1
697 s	CCOc1ccc(OCC)c(S(=O)(=O)Nc2ccc(-c3cn4ccc(C)nc4n3)cc2)c1
1010 s	COc1ccccc1N1CCN(S(=O)(=O)c2ccc(F)cc2C)CC1
887 s	CCc1cccc(NC(=O)N2C[C@@H](F)C[C@H]2C(=O)N2CCc3ccccc3C2)c1
590 s	COCCn1c(C2CCN(S(=O)(=O)c3ccc(F)c(Cl)c3)C2)nc2ccncc21 (stereo not drawn)
709 s	O=C(N1CCN(S(=O)(=O)Cc2ccccc2)CC1)N1C[C@H]2C[C@H](C1)[C@H]1CCCC(=O)N1C2
953 s	CC1(C(=O)NCc2ccc(Cl)cc2)CN(S(C)(=O)=O)CC(=O)N1CCCc1ccccc1 (stereo not drawn)
